Experimental data: PMC2362044, “A potent nonporphyrin class of photodynamic therapeutic agent: cellular localisation, cytotoxic potential and influence of hypoxia” (British Journal of Cancer, 2005)
Where two headings read alike, the source gives them in different places.

Legend:
[1] = tested on: HeLa cells; test: Flow cytometric assessment of apoptosis (Annexin-V/PI); type: cell-based, human
Description: (§1) Evaluation of apoptotic and necrotic cell populations was achieved using the ApoTarget Annexin-V FITC Apoptosis kit (BioSource International, Inc.). Cells (2.0 × 10^5) were seeded into 25 cm^2 flasks and treated with either ADPM01 or ADPM06 at respective EC50 or 10-fold EC50 concentration levels for 3 h, followed by irradiation with red light at 16 J cm^−2, as described above. Subsequently, cells were incubated for 4 and 16 h, with floating and adherent cells being collected at each time point by centrifugation and then stained with Annexin-V and propidium iodide (PI) as per the manufacturer's instructions. The percentage of cells at different phases of cell death, namely nonapoptotic (Annexin-V^−/PI^−), early apoptotic (Annexin-V^+/PI^−), and necrotic or late-stage apoptotic (Annexin-V^+/PI^+), was quantified using a EPICS XL-MCL flow cytometer (Coulter) and analysed using System II software, with at least 5000 cells being analysed for each run.

[2] = tested on: MRC5 cells; test: as above; type: cell-based, human
Description: as §1

[3] = tested on: T47-D cells; test: Colorimetric survival (MTT) assay after photo-irradiation, normoxia; type: cell-based; details: Homo sapiens, T47D, 3 h incubation
Description: (§2) All cell lines unless otherwise stated were obtained from the American Type Culture Collection. HeLa, MRC5, HT-1080, MDA-MB-231, MCF-7 and T47-D cells were cultured in minimum essential medium (MEM) supplemented with 10% (v v^−1) foetal calf serum (FCS), 1% (v v^−1) non-essential amino acids, 50 U ml^−1 penicillin, 50 μg ml^−1 streptomycin, 20 mM HEPES and 1% (v v^−1) L-glutamine (Gibco-BRL). SW480, SW620 (obtained from Professor D Croke, Royal College of Surgeons, Dublin), A2780 and A2780cp70 cells (Obtained from Professor R Brown, Cancer Research UK, Beatson Laboratories, Glasgow) were cultured in RPMI-1640 medium plus the above-mentioned supplements. All cells were maintained in 5% CO2 (v v^−1) and 21% O2 (v v^−1) at 37°C unless otherwise stated.
(§3) Cells were seeded in 96-well flat-bottomed microtitre plates (5000 cells well^−1) and incubated at 37°C in a 5% CO2 incubator for 24 h. Cells were then incubated with varying concentrations of photosensitiser (1 × 10^−9 to 1 × 10^−4 M) in the dark for 3 h at 37°C. The ADPM compound-laden medium was then removed, the cells were washed with PBS and fresh culture medium was added to each well. This was followed by light irradiation with a broad-spectrum red light source (600–750 nm) via a Waldmann PDT1200L light delivery system. For this study, fluences (light exposures) of either 8 or 16 J cm^−2, at a dose rate of 80 mW cm^−2, were used. Following irradiation, the cells were incubated for a further 48 h before being assessed for cell viability by a standard MTT assay (Sigma). The subsequent colour change produced by viable cells was quantified using a plate reader (VICTOR^2 1420 multilabel HTS counter, Wallac). […] The dark toxicity of each compound was also assessed.
(§4) Prism ([…]) was used to graph the data obtained from the MTT assays and the uptake/clearance experiments. This program allows nonlinear regression analysis and the generation of sigmoidal dose–response curves. Prism also automatically calculates EC50 values. Statistical analysis was performed using the ANOVA test (Prism). Significant differences were detected using the Bonferroni multiple comparison test. P-values <0.05 were considered statistically significant.

[4] = tested on: MDA-MB-231 cells; test: as above; type: cell-based; details: Homo sapiens, MDA-MB-231, 3 h incubation
Description: as §2, §3, §4

[5] = tested on: SW620 cells; test: as above; type: cell-based; details: Homo sapiens, SW-620, SW620, 3 h incubation
Description: as §2, §3, §4

[6] = tested on: HeLa cells; test: as above; type: cell-based; details: Homo sapiens, normoxia 21% oxygen, 3 h incubation
Description: as §2, §3, §4

[7] = tested on: A2780 cells; test: as above; type: cell-based; details: Homo sapiens, A2780, 3 h incubation
Description: as §2, §3, §4

[8] = tested on: MCF-7 cells; test: as above; type: cell-based; details: Homo sapiens, MCF7, MCF-7, 3 h incubation
Description: as §2, §3, §4

[9] = tested on: HT-1080 cells; test: as above; type: cell-based; details: Homo sapiens, HT-1080, 3 h incubation
Description: as §2, §3, §4

[10] = tested on: MRC-5 cells; test: as above; type: cell-based; details: Homo sapiens, MRC5, MRC-5, normoxia 21% oxygen, 3 h incubation
Description: as §2, §3, §4

[11] = tested on: A2780cp70 cells; test: as above; type: cell-based; details: Homo sapiens, A2780/CP70, A2780cp70, 3 h incubation
Description: as §2, §3, §4

[12] = tested on: human tumour cell lines; test: Light-induced toxicity (MTT) assays over a broad range of cell lines; type: cell-based; details: for EC50: Homo sapiens, read-out: EC50 values, range between the different cell lines
Description: as §2, §3, §4

[13] = design: method as in Gorman et al, 2004; details: ref Gorman et al, 2004, cited from earlier work
[14] = 10-fold EC50 concentration, 16 h post-irradiation
[15] = EC50 concentration, 4 h post-irradiation
[16] = MRC5, 10-fold EC50 concentration, 16 h post-irradiation
[17] = MRC5, EC50 concentration, 4 h post-irradiation
[18] = 0 J cm^−2, read-out: EC50 (M) (dark)
[19] = 8 J cm^−2, read-out: EC50 (M) (8 J cm^−2)
[20] = 16 J cm^−2, read-out: EC50 (M) (16 J cm^−2)

## F[B-]1(F)n2c(-c3ccccc3)cc(-c3ccccc3)c2N=C2C(c3ccccc3)=CC(c3ccccc3)=[N+]21 [ADPM01]
[1]; [14]
  cells in lower left quadrant (Annexin-V−/PI−, nonapoptotic): 42.5%
  cells in lower right quadrant (Annexin-V+/PI−, early apoptotic): 16.5%
  cells in upper left quadrant (PI+, Annexin-V−): 1.0%
  cells in upper right quadrant (Annexin-V+/PI+, necrotic or late-stage apoptotic): 40.0%
[1]; [15]
  cells in lower left quadrant (Annexin-V−/PI−, nonapoptotic): 95.3%
  cells in lower right quadrant (Annexin-V+/PI−, early apoptotic): 4.40%
  cells in upper left quadrant (PI+, Annexin-V−): 0.16%
  cells in upper right quadrant (Annexin-V+/PI+, necrotic or late-stage apoptotic): 0.12%
[2]; [16]
  cells in lower left quadrant (Annexin-V−/PI−, nonapoptotic): 26.9%
  cells in lower right quadrant (Annexin-V+/PI−, early apoptotic): 31.8%
  cells in upper left quadrant (PI+, Annexin-V−): 0.5%
  cells in upper right quadrant (Annexin-V+/PI+, necrotic or late-stage apoptotic): 40.8%
[2]; [17]
  cells in lower left quadrant (Annexin-V−/PI−, nonapoptotic): 94.1%
  cells in lower right quadrant (Annexin-V+/PI−, early apoptotic): 3.82%
  cells in upper left quadrant (PI+, Annexin-V−): 0.84%
  cells in upper right quadrant (Annexin-V+/PI+, necrotic or late-stage apoptotic): 1.28%
[3]; [18]
  EC50: > 0.0001 M
[3]; [19]
  EC50: 5.6e-06 M
[3]; [20]
  EC50: 5.3e-06 M
[4]; [18]
  EC50: 1.2e-05 M
[4]; [19]
  EC50: 5.6e-06 M
[4]; [20]
  EC50: 2.6e-07 M
[5]; [18]
  EC50: > 0.0001 M
[5]; [19]
  EC50: 5.6e-06 M
[5]; [20]
  EC50: 2.8e-06 M
[6]; [18]
  EC50: 2.7e-05 M
[6]; [19]
  EC50: 2.8e-06 M
[6]; [20]
  EC50: 9.2e-07 M
[7]; [18]
  EC50: > 0.0001 M
[7]; [19]
  EC50: 5.1e-06 M
[7]; [20]
  EC50: 4.5e-06 M
[8]; [18]
  EC50: > 0.0001 M
[8]; [19]
  EC50: 3.4e-06 M
[8]; [20]
  EC50: 1.9e-06 M
[9]; [18]
  EC50: > 0.0001 M
[9]; [19]
  EC50: 3.4e-05 M
[9]; [20]
  EC50: 2.2e-05 M
[10]; [18]
  EC50: > 0.0001 M
[10]; [19]
  EC50: 3.1e-06 M
[10]; [20]
  EC50: 5e-07 M
[11]; [18]
  EC50: > 0.0001 M
[11]; [19]
  EC50: 6.8e-06 M
[11]; [20]
  EC50: 2.8e-06 M
[12]; 8 J cm^−2, all cell lines of Table 1
  EC50: 2.8 to 34 µM
[12]; 16 J cm^−2, all cell lines of Table 1
  EC50: 0.26 to 22 µM
[12]; broad range of human tumour cell lines
  EC50 values, light-induced toxicity (in words): micro-molar range
[13]; formulated in CrEL/PBS
  strong absorbance band: 658 nm
[13]
  fluorescence quantum yield (Φf): 0.34
